Data as given in patent US20050019426A1, “Use of an aqueous or hydroalcoholic extract from bauhinia for the preparation of a composition” (priority 2003, published 2005).
Values joined by “and” are separate entries in the source; they are usually repeats but may differ in a detail not shown here. Identical values can stand only once.

System: non-enzymatic incorporation of glucose into proteins (glycation) in human dermal fibroblasts (NDHF Pool PF2)
Experiment: Non-enzymatic incorporation of glucose into proteins (glycation) in fibroblasts (Example 5)
Type: cell-based
Details: 1 mg/ml, 15 days
Experimental: Material: • human dermal fibroblasts (NDHF Pool PF2) • culture medium: DMEM, 2 mM glutamine, 50 Ul/ml of penicillin, 50 μg/ml of streptomycin, 10% foetal calf serum (Life Technologies) • dry extract of Bauhinia forficata according to Example 4 (aqueous extraction), dissolved in sterile PBS • final concentrations tested: 0.3 mg/ml, 0.1 mg/ml, 0.03 mg/ml • reference: aminoguanidine 1 mg/ml
Human dermal fibroblasts are cultivated to confluence in cell culture medium (see above) in 25 cm^2 plates at 37° C. and 5% CO2. Collagen synthesis is stimulated by cultivation of the cells in the presence of vitamin C (final concentration: 20 μg/ml) for 96 hours. The cells are washed with PBS and lysed by serial freezing/thawing. The cells are treated with aqueous extract of Bauhinia forficata or aminoguanidine (and control: PBS) and labelled with 20 μCi/ml D-[5-^3H]-glucose (19 Ci/mmol), 703 Gbq/mmol) in the presence of 0.1 mg/ml of glucose. The treatment and labelling are carried out without interruption for 15 days at 37° C. and 5% CO2. At the end of the incubation, proteins of the extracellular matrix (principally collagen) are extracted by buffer (TRIS 50 mM, 4M guanidine, 5 mM EDTA, pH 8.0, 30 min). The total protein is precipitated by 20% (v/v) trichloroacetic acid, 0.66 mg/ml of albumin. The precipitates are recovered by filtration from a Skatron collector and washed copiously, firstly in 3% trichloroacetic acid, then with 70% ethanol. The glucose covalently bonded to the fibres of the extracellular matrix is finally measured by scintillation.

Compound: N=C(N)NN [Aminoguanidine, aminoguanidine]
- reduction of glucose incorporation: 85%
- Mean cpm (n=3): 3701 cpm
- cpm (glucose incorporated into proteins) (single replicates): 2859 cpm and 3434 cpm and 4809 cpm
- activity at 1000 µg/mL (Homo sapiens, Fibroblast, 360 h, read-out: % of control (glucose incorporation)): 15%
